# Results reported in patent publication US8192962B2, “Processes for detecting toxic substances” (Daikin Industries, Ltd., priority 2001, dated 2012).
# Tested on: DNA repair protein genes
# Test: DNA chip mRNA expression in yeast, DNA repair protein genes (Table 3)
# Format: cell-based, Saccharomyces cerevisiae S288C
# Conditions: incubated two hours, concentrations as in the 1st table
# Protocol: Yeast (Saccharomyces cerevisiae S288C (α SUC2mal mel gap2 CUP1)) were incubated at 25° C. on YPD medium (yeast extract 1%, polypepton 2%, glucose 2%). One of toxic chemical substances was added to the cells at logarithmic growth phase, and the cells were further incubated for two hours. Cells were cultured without any chemical substance in the same condition, and were used as control. Concentrations of the chemical substances were defined to inhibit the growth of the yeast but not lead to death.
# After completion of the incubation, the culture was centrifuged to collect the cells. To the cells, sodium acetate buffer (50 mM sodium acetate, 10 mM EDTA, 1% SDS) was added, and the mixture was shaken at 65° C. for five minutes, followed by returning to room temperature, and obtaining the supernatant, of which the procedures were repeated two times. To the supernatant, ½ amount of a solution of phenol/chloroform was added, and the mixture was centrifuged to give a supernatant, which was added with an equal amount of chloroform, and the mixture was centrifuged to give a supernatant. To the supernatant, an equal amount of isopropanol containing 0.3 M sodium acetate was added, and the mixture was allowed to stand at room temperature for 30 minutes, after which the mixture was centrifuged to give a sediment of the whole RNAs. Seventy % ethanol was added to the sediment, and the mixture was again centrifuged to give a sediment, which was then dried and dissolved in water. mRNA was isolated from the whole RNAs as followings. In view of the fact that a poly A chain is attached to the 3′ terminus of mRNA, a polynucleotide having a poly T structure which was immobilized on the surface of latex beads was used to trap the mRNA, and then the mRNA was washed and eluted with spine column (Oligotex-dT30<Super>mRNA Purification Kit, Takara). Reverse transcription of the mRNA was conducted with a reverse transcriptase (Super Script II Reverse Transcriptase; catalogue No. 18064-014, GibcoBRL) using fluorescence-labeled nucleotides to give cDNAs that were introduced with Cy3-dUTP or Cy5-dUTP during the reverse transcription.
# The labeled cDNAs were dissolved in TE buffer (10mM Tris-HCl/1 mM EDTA, pH8.0), and the solution was dropped on the DNA chip containing the whole genes of yeast (DNA Chip Research Inc. Japan) so that the cDNAs were hybridized on the DNA chip at 65° C. for over 12 hours. The fluoresces intensity of the DNA chip was read with a scanner, and the ratio relative to the fluorescence intensity resulting from the absence of chemical substance was estimated as the following, which is shown in Tables 1 to 9: […]
smiles,measurement,setting,value
"Cl[C@H]1[C@H](Cl)[C@@H](Cl)[C@@H](Cl)[C@H](Cl)[C@H]1Cl [(7), γ-hexachlorocyclohexane]",The level of expressed mRNA in the presence of chemical substance/The level of expressed mRNA in the absence of chemical substance,yeast gene YAL015C,1.2
same,The level of expressed mRNA in the presence of chemical substance/The level of expressed mRNA in the absence of chemical substance,yeast gene YAR007C,0.8
same,The level of expressed mRNA in the presence of chemical substance/The level of expressed mRNA in the absence of chemical substance,yeast gene YBL019W,1.2
same,The level of expressed mRNA in the presence of chemical substance/The level of expressed mRNA in the absence of chemical substance,yeast gene YBR073W,0.6
same,The level of expressed mRNA in the presence of chemical substance/The level of expressed mRNA in the absence of chemical substance,yeast gene YBR272C,1.9
same,The level of expressed mRNA in the presence of chemical substance/The level of expressed mRNA in the absence of chemical substance,yeast gene YCR014C,1.1
same,The level of expressed mRNA in the presence of chemical substance/The level of expressed mRNA in the absence of chemical substance,yeast gene YDL017W,1.1
same,The level of expressed mRNA in the presence of chemical substance/The level of expressed mRNA in the absence of chemical substance,yeast gene YDL059C,1.1
same,The level of expressed mRNA in the presence of chemical substance/The level of expressed mRNA in the absence of chemical substance,yeast gene YDL200C,1.7
same,The level of expressed mRNA in the presence of chemical substance/The level of expressed mRNA in the absence of chemical substance,yeast gene YDR054C,1.1
same,The level of expressed mRNA in the presence of chemical substance/The level of expressed mRNA in the absence of chemical substance,yeast gene YDR369C,0.4
same,The level of expressed mRNA in the presence of chemical substance/The level of expressed mRNA in the absence of chemical substance,yeast gene YEL019C,1.2
same,The level of expressed mRNA in the presence of chemical substance/The level of expressed mRNA in the absence of chemical substance,yeast gene YEL037C,0.8
same,The level of expressed mRNA in the presence of chemical substance/The level of expressed mRNA in the absence of chemical substance,yeast gene YER162C,0.5
same,The level of expressed mRNA in the presence of chemical substance/The level of expressed mRNA in the absence of chemical substance,yeast gene YFL014W,5.5
same,The level of expressed mRNA in the presence of chemical substance/The level of expressed mRNA in the absence of chemical substance,yeast gene YGL058W,0.0
same,The level of expressed mRNA in the presence of chemical substance/The level of expressed mRNA in the absence of chemical substance,yeast gene YGL091C,1.3
same,The level of expressed mRNA in the presence of chemical substance/The level of expressed mRNA in the absence of chemical substance,yeast gene YGL127C,1.0
same,The level of expressed mRNA in the presence of chemical substance/The level of expressed mRNA in the absence of chemical substance,yeast gene YGL163C,1.0
same,The level of expressed mRNA in the presence of chemical substance/The level of expressed mRNA in the absence of chemical substance,yeast gene YGL249W,1.2
same,The level of expressed mRNA in the presence of chemical substance/The level of expressed mRNA in the absence of chemical substance,yeast gene YGR180C,0.5
same,The level of expressed mRNA in the presence of chemical substance/The level of expressed mRNA in the absence of chemical substance,yeast gene YGR231C,2.1
same,The level of expressed mRNA in the presence of chemical substance/The level of expressed mRNA in the absence of chemical substance,yeast gene YGR258C,1.5
same,The level of expressed mRNA in the presence of chemical substance/The level of expressed mRNA in the absence of chemical substance,yeast gene YHR164C,0.8
same,The level of expressed mRNA in the presence of chemical substance/The level of expressed mRNA in the absence of chemical substance,yeast gene YIL036W,1.4
same,The level of expressed mRNA in the presence of chemical substance/The level of expressed mRNA in the absence of chemical substance,yeast gene YIL072W,1.7
same,The level of expressed mRNA in the presence of chemical substance/The level of expressed mRNA in the absence of chemical substance,yeast gene YIL143C,0.8
same,The level of expressed mRNA in the presence of chemical substance/The level of expressed mRNA in the absence of chemical substance,yeast gene YIL153W,1.6
same,The level of expressed mRNA in the presence of chemical substance/The level of expressed mRNA in the absence of chemical substance,yeast gene YIR002C,1.3
same,The level of expressed mRNA in the presence of chemical substance/The level of expressed mRNA in the absence of chemical substance,yeast gene YJL026W,0.5
same,The level of expressed mRNA in the presence of chemical substance/The level of expressed mRNA in the absence of chemical substance,yeast gene YJR046W,0.9
same,The level of expressed mRNA in the presence of chemical substance/The level of expressed mRNA in the absence of chemical substance,yeast gene YJR052W,1.2
same,The level of expressed mRNA in the presence of chemical substance/The level of expressed mRNA in the absence of chemical substance,yeast gene YKL145W,1.6
same,The level of expressed mRNA in the presence of chemical substance/The level of expressed mRNA in the absence of chemical substance,yeast gene YLR103C,1.3
same,The level of expressed mRNA in the presence of chemical substance/The level of expressed mRNA in the absence of chemical substance,yeast gene YLR233C,0.8
same,The level of expressed mRNA in the presence of chemical substance/The level of expressed mRNA in the absence of chemical substance,yeast gene YLR288C,1.3
same,The level of expressed mRNA in the presence of chemical substance/The level of expressed mRNA in the absence of chemical substance,yeast gene YML032C,0.8
same,The level of expressed mRNA in the presence of chemical substance/The level of expressed mRNA in the absence of chemical substance,yeast gene YML058W,0.6
same,The level of expressed mRNA in the presence of chemical substance/The level of expressed mRNA in the absence of chemical substance,yeast gene YMR035W,2.3
same,The level of expressed mRNA in the presence of chemical substance/The level of expressed mRNA in the absence of chemical substance,yeast gene YMR072W,1.4
same,The level of expressed mRNA in the presence of chemical substance/The level of expressed mRNA in the absence of chemical substance,yeast gene YMR096W,1.9
same,The level of expressed mRNA in the presence of chemical substance/The level of expressed mRNA in the absence of chemical substance,yeast gene YMR284W,0.8
same,The level of expressed mRNA in the presence of chemical substance/The level of expressed mRNA in the absence of chemical substance,yeast gene YNL213C,1.4
same,The level of expressed mRNA in the presence of chemical substance/The level of expressed mRNA in the absence of chemical substance,yeast gene YNL250W,1.2
same,The level of expressed mRNA in the presence of chemical substance/The level of expressed mRNA in the absence of chemical substance,yeast gene YNL261W,1.0
same,The level of expressed mRNA in the presence of chemical substance/The level of expressed mRNA in the absence of chemical substance,yeast gene YNL312W,0.5
same,The level of expressed mRNA in the presence of chemical substance/The level of expressed mRNA in the absence of chemical substance,yeast gene YOL043C,1.0
same,The level of expressed mRNA in the presence of chemical substance/The level of expressed mRNA in the absence of chemical substance,yeast gene YOR005C,1.4
same,The level of expressed mRNA in the presence of chemical substance/The level of expressed mRNA in the absence of chemical substance,yeast gene YOR386W,1.8
same,The level of expressed mRNA in the presence of chemical substance/The level of expressed mRNA in the absence of chemical substance,yeast gene YPL022W,0.8
same,The level of expressed mRNA in the presence of chemical substance/The level of expressed mRNA in the absence of chemical substance,yeast gene YPL164C,0.9
same,The level of expressed mRNA in the presence of chemical substance/The level of expressed mRNA in the absence of chemical substance,yeast gene YPL194W,1.5
same,The level of expressed mRNA in the presence of chemical substance/The level of expressed mRNA in the absence of chemical substance,yeast gene YPR025C,1.4
